This is an account of results in US10988523B2, “Modified lipidated Relaxin B chain peptides and their therapeutic use” (Sanofi, priority 2018, dated 2021).

Molecules are shown by their SMILES. *1 amine or outer side, *2 acyl side, *3 side chain or, on linkers, in order; H or OH if unused. Where a SMILES comes first, the peptide text is derived from it. Side-chain parts run from the residue outwards. [ ]: non-standard residue; d: D form. The star is where a group is joined. Trp(5-OH) = N[C@@H](Cc1c[nH]c2ccc(O)cc12)C(=O)O; Heptadecanoyl = CCCCCCCCCCCCCCCCC(=O)*; γGlu = O=C(O)[C@H](CCC(=O)[*:2])N[*:1]; Pentadecanoyl = CCCCCCCCCCCCCCC(=O)*; Stearoyl = CCCCCCCCCCCCCCCCCC(=O)*; Palmitoyl = CCCCCCCCCCCCCCCC(=O)*; PEG4 = NCCOCCOCCOCCOCCC(=O)O; αMeK = C[C@](N)(CCCCN)C(=O)O; Nle = CCCC[C@H](N)C(=O)O; AEEA = NCCOCCOCC(=O)O; Aib = CC(C)(N)C(=O)O

The assay has as its target T1, RXFP1 (Homo sapiens, UniProt Q9HBX9).
T1 construct: OVCAR5 cells expressing endogenous RXFP1; endogenous in cells; host or cells: OVCAR5 cells
T1 sequence (Q9HBX9 1-757): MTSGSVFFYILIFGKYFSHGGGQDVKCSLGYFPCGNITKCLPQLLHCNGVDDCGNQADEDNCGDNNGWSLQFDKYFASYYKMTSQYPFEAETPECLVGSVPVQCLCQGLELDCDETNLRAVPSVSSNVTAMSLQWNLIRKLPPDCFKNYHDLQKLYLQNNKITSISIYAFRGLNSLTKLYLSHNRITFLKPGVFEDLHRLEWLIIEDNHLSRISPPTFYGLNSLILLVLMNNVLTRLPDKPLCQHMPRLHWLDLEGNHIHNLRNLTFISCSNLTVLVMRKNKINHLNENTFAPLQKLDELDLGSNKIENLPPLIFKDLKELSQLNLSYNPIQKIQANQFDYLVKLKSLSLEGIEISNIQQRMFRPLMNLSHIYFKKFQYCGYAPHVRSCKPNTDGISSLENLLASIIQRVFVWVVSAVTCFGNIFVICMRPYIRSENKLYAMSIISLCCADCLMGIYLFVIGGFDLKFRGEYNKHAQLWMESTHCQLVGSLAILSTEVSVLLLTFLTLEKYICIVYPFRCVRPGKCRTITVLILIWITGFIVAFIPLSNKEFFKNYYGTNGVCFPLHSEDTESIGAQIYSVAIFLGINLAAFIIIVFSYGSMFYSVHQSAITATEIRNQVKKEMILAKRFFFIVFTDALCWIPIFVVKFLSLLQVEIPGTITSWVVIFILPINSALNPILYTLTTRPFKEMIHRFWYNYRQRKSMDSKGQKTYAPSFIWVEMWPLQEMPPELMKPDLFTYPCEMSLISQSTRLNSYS
In words: OVCAR5 cAMP assay (HTRF), RXFP1 agonist activity. Format: cell-based. The note with it: for EC50: OVCAR5 cells, cAMP HTRF, read-out: EC50 (nM), OVCAR 5 cells (cAMP); for Emax: OVCAR-5, maximal cAMP relative to H2-relaxin maximum (100%), read-out: EMax, OVCAR 5 cells (cAMP). The method in brief: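 cAMP accumulation readout: after 1 mM IBMX for 40 min, endogenous-RXFP1 OVCAR5 cells got rising peptide concentrations without FCS, 30 min, 37° C, then lysis with HTRF cAMP reagents. Nonlinear regression gave EC50; Emax expressed relative to H2-relaxin maximum, same occasion.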
(In general: Changes in cAMP serve as a functional read-out for many G protein-coupled receptors.)

On to `CCCCCCCCCCCCCCC(=O)N[C@@H](CCC(=O)N[C@@H](CCC(=O)N[C@@H](CCC(=O)N[C@@H](CCC(=O)NCCCC[C@H](NC(=O)COCCOCCNC(=O)COCCOCCNC(=O)COCCOCCNC(=O)COCCOCCNC(=O)[C@H](CCCCNC(C)=O)NC(=O)[C@H](C)NC(=O)[C@H](CCCNC(=N)N)NC(=O)[C@](C)(CCCCN)NC(=O)[C@H](CO)NC(=O)[C@H](Cc1ccccc1)NC(=O)[C@@H](NC(=O)[C@H](CO)NC(=O)[C@H](CCC(N)=O)NC(=O)CNC(=O)[C@H](CCC(=O)O)NC(=O)C(C)(C)NC(=O)C(C)(C)NC(=O)[C@@H](NC(=O)[C@H](CCCCNC(C)=O)NC(=O)[C@H](C)NC(=O)[C@H](CCCNC(=N)N)NC(=O)[C@@H](NC(=O)[C@H](CCCCN)NC(=O)[C@H](CCC(=O)O)NC(=O)[C@H](CCCNC(=N)N)NC(=O)CNC(=O)[C@H](CCC(=O)O)NC(=O)[C@H](CC(C)C)NC(C)=O)C(C)C)[C@@H](C)CC)[C@@H](C)O)C(N)=O)C(=O)O)C(=O)O)C(=O)O)C(=O)O` [compound 182] (Ac-LEGREKVRAK(Ac)I[Aib][Aib]EGQSTFS[αMeK]RAK(Ac)[AEEA][AEEA][AEEA][AEEA]K([γGlu-γGlu-γGlu-γGlu-Pentadecanoyl])-NH2), for which the EC50 (usually the concentration at which the effect is half-maximal) was found to be 0.19 nM and the Emax (usually the size of the effect at its maximum, as opposed to the concentration needed) turned out to be 99%.

Consider `CCCCCCCCCCCCCCCCCC(=O)N[C@@H](CCC(=O)N[C@@H](CCC(=O)N[C@@H](CCC(=O)NCCCC[C@H](NC(=O)CCOCCOCCOCCOCCNC(=O)CCOCCOCCOCCOCCNC(=O)[C@H](CCCCNC(C)=O)NC(=O)[C@H](CCCCN)NC(=O)[C@H](CCCNC(=N)N)NC(=O)C(C)(C)NC(=O)[C@H](CO)NC(=O)[C@H](Cc1c[nH]c2ccccc12)NC(=O)[C@@H](NC(=O)[C@H](CO)NC(=O)[C@H](CCCC)NC(=O)CNC(=O)[C@H](CCC(=O)O)NC(=O)C(C)(C)NC(=O)C(C)(C)NC(=O)[C@@H](NC(=O)[C@H](CCCCNC(C)=O)NC(=O)[C@H](C)NC(=O)[C@H](CCCNC(=N)N)NC(=O)[C@@H](NC(=O)[C@H](CCCCN)NC(=O)[C@H](CCC(=O)O)NC(=O)[C@H](CCCNC(=N)N)NC(=O)CNC(=O)[C@H](CCC(=O)O)NC(=O)[C@H](CC(C)C)NC(C)=O)C(C)C)[C@@H](C)CC)[C@@H](C)O)C(N)=O)C(=O)O)C(=O)O)C(=O)O` [compound 124] (Ac-LEGREKVRAK(Ac)I[Aib][Aib]EG[Nle]STWS[Aib]RKK(Ac)[PEG4][PEG4]K([γGlu-γGlu-γGlu-Stearoyl])-NH2), for which the maximal response (Emax) turned out to be 88%. `CCCCCCCCCCCCCCCCCC(=O)N[C@@H](CCC(=O)N[C@@H](CCC(=O)N[C@@H](CCC(=O)NCCOCCOCC(=O)NCCOCCOCC(=O)NCCOCCOCC(=O)NCCCC[C@H](NC(=O)[C@H](CCCCNC(C)=O)NC(=O)[C@H](CCCCN)NC(=O)[C@H](CCCNC(=N)N)NC(=O)C(C)(C)NC(=O)[C@H](CO)NC(=O)[C@H](Cc1c[nH]c2ccc(O)cc12)NC(=O)[C@@H](NC(=O)[C@H](CO)NC(=O)[C@H](CCCC)NC(=O)CNC(=O)[C@H](CCC(=O)O)NC(=O)C(C)(C)NC(=O)C(C)(C)NC(=O)[C@@H](NC(=O)[C@H](CCCCNC(C)=O)NC(=O)[C@H](C)NC(=O)[C@H](CCCNC(=N)N)NC(=O)[C@@H](NC(=O)[C@H](CCCCN)NC(=O)[C@H](CCC(=O)O)NC(=O)[C@H](CCCNC(=N)N)NC(=O)CNC(=O)[C@H](CCC(=O)O)NC(=O)[C@H](CC(C)C)NC(C)=O)C(C)C)[C@@H](C)CC)[C@@H](C)O)C(N)=O)C(=O)O)C(=O)O)C(=O)O` [compound 158] (Ac-LEGREKVRAK(Ac)I[Aib][Aib]EG[Nle]ST[Trp(5-OH)]S[Aib]RKK(Ac)K([AEEA-AEEA-AEEA-γGlu-γGlu-γGlu-Stearoyl])-NH2): the EC50 is 0.14 nM and the Emax was 90%. In the case of `CCCCCCCCCCCCCCCCCC(=O)N[C@@H](CCC(=O)N[C@@H](CCC(=O)N[C@@H](CCC(=O)N[C@@H](CCC(=O)N[C@@H](CCC(=O)NCCOCCOCC(=O)NCCOCCOCC(=O)NCCOCCOCC(=O)NCCCC[C@H](NC(=O)[C@H](CCCCN)NC(=O)[C@H](CCCCN)NC(=O)[C@H](CCCNC(=N)N)NC(=O)C(C)(C)NC(=O)[C@H](CO)NC(=O)[C@H](Cc1c[nH]c2ccccc12)NC(=O)[C@@H](NC(=O)[C@H](CO)NC(=O)[C@H](CCC(N)=O)NC(=O)CNC(=O)[C@H](CCC(=O)O)NC(=O)C(C)(C)NC(=O)C(C)(C)NC(=O)[C@@H](NC(=O)[C@H](CCCCNC(C)=O)NC(=O)[C@H](C)NC(=O)[C@H](CCCNC(=N)N)NC(=O)[C@@H](NC(=O)[C@H](CCCCN)NC(=O)[C@H](CCC(=O)O)NC(=O)[C@H](CCCNC(=N)N)NC(=O)CNC(=O)[C@H](CCC(=O)O)NC(=O)[C@H](CC(C)C)NC(C)=O)C(C)C)[C@@H](C)CC)[C@@H](C)O)C(N)=O)C(=O)O)C(=O)O)C(=O)O)C(=O)O)C(=O)O` [compound 111] (Ac-LEGREKVRAK(Ac)I[Aib][Aib]EGQSTWS[Aib]RKKK([AEEA-AEEA-AEEA-γGlu-γGlu-γGlu-γGlu-γGlu-Stearoyl])-NH2), the EC50 was found to be 0.21 nM and the maximal response (Emax) was determined as 92%. For the compound `CCCCCCCCCCCCCCCCCC(=O)N[C@@H](CCC(=O)N[C@@H](CCC(=O)N[C@@H](CCC(=O)NCCCC[C@H](NC(=O)CCOCCOCCOCCOCCNC(=O)[C@H](CCCCNC(C)=O)NC(=O)[C@H](CCCCN)NC(=O)[C@H](CCCNC(=N)N)NC(=O)C(C)(C)NC(=O)[C@H](CO)NC(=O)[C@H](Cc1c[nH]c2ccccc12)NC(=O)[C@@H](NC(=O)[C@H](CO)NC(=O)[C@H](CCCC)NC(=O)CNC(=O)[C@H](CCC(=O)O)NC(=O)C(C)(C)NC(=O)C(C)(C)NC(=O)[C@@H](NC(=O)[C@H](CCCCNC(C)=O)NC(=O)[C@H](C)NC(=O)[C@H](CCCNC(=N)N)NC(=O)[C@@H](NC(=O)[C@H](CCCCN)NC(=O)[C@H](CCC(=O)O)NC(=O)[C@H](CCCNC(=N)N)NC(=O)CNC(=O)[C@H](CCC(=O)O)NC(=O)[C@H](CC(C)C)NC(C)=O)C(C)C)[C@@H](C)CC)[C@@H](C)O)C(N)=O)C(=O)O)C(=O)O)C(=O)O` [compound 123] (Ac-LEGREKVRAK(Ac)I[Aib][Aib]EG[Nle]STWS[Aib]RKK(Ac)[PEG4]K([γGlu-γGlu-γGlu-Stearoyl])-NH2), the Emax was found to be 88%. With `CCCCCCCCCCCCCCCC(=O)N[C@@H](CCC(=O)N[C@@H](CCC(=O)N[C@@H](CCC(=O)NCCCC[C@H](NC(=O)COCCOCCNC(=O)COCCOCCNC(=O)COCCOCCNC(=O)[C@H](CCCCNC(C)=O)NC(=O)[C@H](CCCCN)NC(=O)[C@H](CCCNC(=N)N)NC(=O)C(C)(C)NC(=O)[C@H](CO)NC(=O)[C@H](Cc1c[nH]c2ccccc12)NC(=O)[C@@H](NC(=O)[C@H](CO)NC(=O)[C@H](CCCC)NC(=O)CNC(=O)[C@H](CCC(=O)O)NC(=O)C(C)(C)NC(=O)C(C)(C)NC(=O)[C@@H](NC(=O)[C@H](CCCCNC(C)=O)NC(=O)[C@H](C)NC(=O)[C@H](CCCNC(=N)N)NC(=O)[C@@H](NC(=O)[C@H](CCCCN)NC(=O)[C@H](CCC(=O)O)NC(=O)[C@H](CCCNC(=N)N)NC(=O)CNC(=O)[C@H](CCC(=O)O)NC(=O)[C@H](CC(C)C)NC(C)=O)C(C)C)[C@@H](C)CC)[C@@H](C)O)C(N)=O)C(=O)O)C(=O)O)C(=O)O` [compound 114] (Ac-LEGREKVRAK(Ac)I[Aib][Aib]EG[Nle]STWS[Aib]RKK(Ac)[AEEA][AEEA][AEEA]K([γGlu-γGlu-γGlu-Palmitoyl])-NH2), the maximal effect (Emax) was found to be 90%. The same measure, in the same setting: with `CCCCCCCCCCCCCCCCC(=O)N[C@@H](CCC(=O)N[C@@H](CCC(=O)N[C@@H](CCC(=O)NCCOCCOCC(=O)NCCOCCOCC(=O)NCCOCCOCC(=O)NCCCC[C@H](NC(=O)[C@H](CCCCNC(C)=O)NC(=O)[C@H](CCCCN)NC(=O)[C@H](CCCNC(=N)N)NC(=O)C(C)(C)NC(=O)[C@H](CO)NC(=O)[C@H](Cc1c[nH]c2ccccc12)NC(=O)[C@@H](NC(=O)[C@H](CO)NC(=O)[C@H](CCCC)NC(=O)CNC(=O)[C@H](CCC(=O)O)NC(=O)C(C)(C)NC(=O)C(C)(C)NC(=O)[C@@H](NC(=O)[C@H](CCCCNC(C)=O)NC(=O)[C@H](C)NC(=O)[C@H](CCCNC(=N)N)NC(=O)[C@@H](NC(=O)[C@H](CCCCN)NC(=O)[C@H](CCC(=O)O)NC(=O)[C@H](CCCNC(=N)N)NC(=O)CNC(=O)[C@H](CCC(=O)O)NC(=O)[C@H](CC(C)C)NC(C)=O)C(C)C)[C@@H](C)CC)[C@@H](C)O)C(N)=O)C(=O)O)C(=O)O)C(=O)O` [compound 164] (Ac-LEGREKVRAK(Ac)I[Aib][Aib]EG[Nle]STWS[Aib]RKK(Ac)K([AEEA-AEEA-AEEA-γGlu-γGlu-γGlu-Heptadecanoyl])-NH2) the figure was 93%.
